The source of these data is patent US7462599B2, “Use of effectors of glutaminyl and glutamate cyclases” (Probiodrug AG, priority 2003, dated 2008).

“And” between values parts separate entries of the source, which are not always exact repeats. Identical values can stand only once. Bridge positions count the residues as written; N and C are the ends. Square brackets hold non-standard residues; d marks the D form. Ends that are not written are not given here. Peptide text beside a SMILES is read from it. β3hQ = NC(=O)CC[C@H](N)CC(=O)O

Data set [1] has as its target T1, QC (Homo sapiens, UniProt Q16769). Briefly: Inhibitor assay, human QC catalyzed reaction (Ki determination). Also noted: The cDNA of the mature QC starting with codon 38 was fused in frame with the plasmid encoded 6× histidine tag; 6x histidine tag; made in house; host or cells: Pichia pastoris X33 (pPICZαB); also E. coli M15 (pQE-31). It counts as biochemical.
For data set [2], the target named is T1, QC. Description: Enzyme inactivation/reactivation of human QC. It counts as biochemical. Also noted: The cDNA of the mature QC starting with codon 38 was fused in frame with the plasmid encoded 6× histidine tag; 6x histidine tag; made in house; host or cells: Pichia pastoris X33 (pPICZαB); also E. coli M15 (pQE-31).
The test system of a further data set is mammalian QC. The following applies: Busby et al. 1987; cited from earlier work.
How the values of data set [3] were obtained: H-Glu(OMe)-βNA and H-Glu-βNA. […] These fluorogenic substrates were analyzed fluorometrically, utilizing pyroglutamyl aminopeptidase as auxiliary enzyme.
Data set [4] has as its target T1, QC. Description: Fluorometric QC assay with pyroglutamyl aminopeptidase as auxiliary enzyme, human QC. It counts as biochemical. Also noted: The cDNA of the mature QC starting with codon 38 was fused in frame with the plasmid encoded 6× histidine tag; 6x histidine tag; made in house; host or cells: Pichia pastoris X33 (pPICZαB); also E. coli M15 (pQE-31). The following applies: for conversion by human QC: analyzed fluorometrically; for inhibition of human QC by the peptide: H-Gln-AMC as substrate. From the text:
Excitation/emission wavelengths were 320/410 nm.
H-Glu(OMe)-βNA and H-Glu-βNA.

In data set [5] the target is T1, QC. Description: Continuous spectrophotometric assay of substrate conversion, human QC.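 As to all read-outs here: initial rates read at 30 °C in a microplate reader, with activity quantified against an ammonia calibration curve under the same assay conditions.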 Also noted: The cDNA of the mature QC starting with codon 38 was fused in frame with the plasmid encoded 6× histidine tag; 6x histidine tag; made in house; host or cells: Pichia pastoris X33 (pPICZαB); also E. coli M15 (pQE-31). It counts as biochemical. As to conditions: for Ki / Ki*: n.i. = no inhibition; for Ki*: for substrate inhibition.
Protocol: The initial velocities were evaluated and the enzymatic activity was determined from a standard curve of ammonia under assay conditions. All samples were measured at 30° C., using either the [sequence]luor Plus or the Sunrise (both from TECAN) reader for microplates. Kinetic data was evaluated using GraFit software.

Data set [6] deals with T1, QC. Briefly: Discontinuous method for QC kinetic parameters. It counts as biochemical.
Setting [7] is: 0.05 M Tris-HCl, pH 8.0, 0.5 M KCl.
The mark [8] stands for this setting: recombinant human QC, buffer containing 1% DMSO.

T1 sequence (Q16769 29-361): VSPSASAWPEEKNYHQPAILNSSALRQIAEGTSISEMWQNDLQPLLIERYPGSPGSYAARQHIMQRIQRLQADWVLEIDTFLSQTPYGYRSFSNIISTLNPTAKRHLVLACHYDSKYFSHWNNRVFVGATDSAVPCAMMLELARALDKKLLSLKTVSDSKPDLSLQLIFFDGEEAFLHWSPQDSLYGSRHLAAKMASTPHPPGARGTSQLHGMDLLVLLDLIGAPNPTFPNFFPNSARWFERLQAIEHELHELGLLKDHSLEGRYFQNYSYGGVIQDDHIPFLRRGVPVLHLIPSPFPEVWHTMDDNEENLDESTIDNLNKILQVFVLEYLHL

Regarding `Cn1cnc(CCN)c1` [1-methyl-4-(β-aminoethyl)-imidazole], the “inhibition of human QC” value against QC [1] is recorded as “complete loss of inhibitory activity”. On QC [1] (Table 4, n.i. = no inhibition), the Ki value entry is “n.i”.

With `c1ccc(-n2ccnc2)cc1` [1-phenylimidazole], the “inhibition of human QC” value against QC [1] is “inactive under the experimental conditions”.

Take `O=C1CNC(=S)N1CCCn1ccnc1` [3-[3-(1H-imidazol-1-yl)propyl]-2-thioxoimidazolidin-4-one]: the affinity on QC [1] (30° C., 0.05 M Tris-HCl pH 8.0, 5 mM EDTA), expressed as Ki, was 810 ± 10 nM.

In the case of `Oc1cccc2cccnc12` [8-hydroxyquinoline], the “inhibition of human QC catalyzed substrate cyclization by chelators” value (“inhibition … by chelators” below) on QC [2] is given as “abolished”.

With `O=C(O)CN(CCN(CC(=O)O)CC(=O)O)CC(=O)O` [EDTA], the “inhibition of mammalian QC” value with mammalian QC is reported as “did not inhibit”. In addition, the “inhibition … by chelators” value against QC [2] is “did not show remarkable inhibition”.

As to `N[C@@H](CCC(=O)O)C(=O)Nc1ccc2ccccc2c1` [Glu-βNA, H-Glu-βNA], the “limiting rate constant for nonenzymatic turnover (estimate, no product formed)” value in data set [3] (pH 6.0, 4 weeks) is not above 1e-09 s⁻¹. At QC [4], the “conversion by human QC” value is “Neither of these compounds were converted”.

`Cc1cc(=O)oc2cc(NC(=O)[C@@H](N)CCC(N)=O)ccc12` [H-Gln-AMC]: on QC [5] (Table 6, n.r. = not reactive), the Km – broadly, the concentration of substrate that gives half-maximal velocity – amounted to 54 ± 2 µM and the kcat – broadly, the maximal rate divided by the concentration of active sites – amounted to 5.3 ± 0.1 s⁻¹.

In the case of `C[C@H](NC(=O)[C@H](C)NC(=O)[C@@H](N)CCC(N)=O)C(N)=O` [H-Gln-Ala-Ala-NH2] (H-Gln-Ala-Ala-NH2), the kcat at QC [5] (Table 7, substrate length) was 76.3 ± 0.7 s⁻¹.

In the case of `C[C@H](NC(=O)[C@@H](N)CCC(N)=O)C(N)=O` [H-Gln-Ala-NH2] (H-Gln-Ala-NH2), the kcat on QC [5] (Table 7, substrate length) was determined as 40.1 ± 0.9 s⁻¹.

Turning to `C[C@H](NC(=O)[C@@H](N)CCC(N)=O)C(=O)O` [H-Gln-Ala-OH] (H-Gln-Ala-OH), the Km was 232 ± 5 µM at QC [5]; 269 µM and 357 µM on QC [5] (pH 8). In addition, the kcat on QC [5] (0.05 M Tris-HCl, pH 8.0) amounted to 54.4 ± 0.5 s⁻¹; on QC [5] (setting [7]), 47.6 ± 0.6 s⁻¹; on QC [5] (Table 6, n.r. = not reactive), 57.2 ± 0.4 s⁻¹. In addition, the Ki (commonly the equilibrium dissociation constant of an inhibitor or competing ligand from its target) at QC [5] (setting [7]) is “n.i”; on QC [5] (0.05 M Tris-HCl, pH 8.0) it was “n.i”. Also, the “Ki*” value at QC [5] (Table 6) is “n.i”.

In the case of `NC(=O)CC[C@H](NC(=O)[C@@H](N)CCC(N)=O)C(=O)O` [H-Gln-Gln-OH] (H-Gln-Gln-OH), the figures for the Km at QC [6] and at QC [5] were 175 ± 18 µM and 148 ± 5 µM, respectively. Also, the kcat was found to be 21.3 ± 0.6 s⁻¹ at QC [6] (discontinuous method) and 20.7 ± 0.2 s⁻¹ at QC [5] (Table 6, n.r. = not reactive). Moreover, on QC [5] (Table 6), the “Ki*” value is given as “n.i”.

For the molecule `NC(=O)CC[C@H](N)C(=O)N[C@@H](CCC(=O)O)C(=O)O` [H-Gln-Glu-OH] (H-Gln-Glu-OH), the kcat was found to be 21.4 ± 0.3 s⁻¹ at QC [5] (0.05 M Tris-HCl, pH 8.0); 18.9 ± 0.5 s⁻¹ on QC [5] (setting [7]); 24.7 ± 0.2 s⁻¹ on QC [5] (Table 6, n.r. = not reactive). Further, the Ki entry on QC [5] (setting [7]) was “n.i”; on QC [5] (0.05 M Tris-HCl, pH 8.0) it was “n.i”. On QC [5] (Table 6), the “Ki*” value is recorded as “n.i”. In addition, the Km on QC [5] (pH 8) is 373 µM and 607 µM.

Consider `NC(=O)CC[C@H](N)C(N)=O` [H-Gln-NH2], for which the Michaelis-Menten constant (Km) on QC [5] (0.05 M Tris-HCl, pH 8.0) stood at 442 ± 30 µM. The kcat on QC [5] (0.05 M Tris-HCl, pH 8.0) was 12.8 ± 0.3 s⁻¹; on QC [5] (setting [7]), 12.2 ± 0.1 s⁻¹; at QC [5] (Table 6, n.r. = not reactive), 12.8 ± 0.5 s⁻¹. Also, the Ki entry at QC [5] (setting [7]) was “n.i”; at QC [5] (0.05 M Tris-HCl, pH 8.0), “n.i”. Besides, the “Ki*” value at QC [5] (Table 6) is given as “n.i”.

As for `NC(=O)CC[C@H](N)C(=O)O` [H-Gln-OH], at QC [5] (Table 6, n.r. = not reactive), the KM entry was “n.r” and the kcat result is recorded as “n.r”.

Regarding `CC(C)(C)OC(=O)C(N)CCC(N)=O` (stereo not drawn) [H-Gln-OtBu], the “Ki*” value on QC [5] (Table 6) is listed as “n.i”. For the same molecule, at QC [5] (Table 6, n.r. = not reactive), the Km is 1240 ± 74 µM and the kcat is 6.7 ± 0.2 s⁻¹.

`NC(=O)CC[C@H](N)C(=O)N[C@@H](Cc1ccc(O)cc1)C(=O)O` [H-Gln-Tyr-OH] (H-Gln-Tyr-OH): the Km on QC [5] came to 211 ± 5 µM. Moreover, the “Ki*” value on QC [5] (Table 6) is on record as “n.i”. The kcat at QC [5] (Table 6, n.r. = not reactive) came to 94 ± 1 s⁻¹.

For the molecule `CC(C)[C@H](NC(=O)[C@@H](N)CCC(N)=O)C(=O)O` [H-Gln-Val-OH] (H-Gln-Val-OH), the Km at QC [5] is 196 ± 5 µM. Further, the “Ki*” value at QC [5] (Table 6) is recorded as “n.i”. The kcat at QC [5] (Table 6, n.r. = not reactive) was 17.2 ± 0.1 s⁻¹.

Consider `NC(=O)CC[C@H](N)C(=O)Nc1ccc2ccccc2c1` [H-Gln-βNA], for which the “first-order rate constant of nonenzymatic pGlu-formation” value in data set [3] (pH 6.0, followed for 4 weeks) is on record as 1.2*10^−7 s^−1. Besides, the kcat is 20.6 ± 0.5 s⁻¹ on QC [5]; 21.7 ± 0.5 s⁻¹ and 20.0 ± 0.4 s⁻¹ at QC [5] (pH 8).

As for `COC(=O)CC[C@H](N)C(=O)N[C@@H](Cc1ccccc1)C(=O)N[C@@H](CCCCN)C(=O)N[C@@H](CCCNC(=N)N)C(=O)N[C@@H](CC(C)C)C(=O)N[C@@H](C)C(N)=O` [H-Glu(OMe)-Phe-Lys-Arg-Leu-Ala-NH2] (H-E(OMe)FKRLA-NH2), on QC [4], the “inhibition of human QC by the peptide” value is “not inhibited”.

For `COC(=O)CC[C@H](N)C(=O)Nc1ccc2ccccc2c1` [H-Glu(OMe)-βNA, H-Glu(OMe)-β-naphthylamide], the “stability in Tris and Tricine buffers (non-enzymatically catalyzed cyclization)” value in data set [3] was “remarkable instability”. Besides, the “conversion by human QC” value on QC [4] was “Neither of these compounds were converted”.

Turning to `O=S(=O)([O-])[O-].[Zn+2]` [ZnSO4], at QC [2] (metal ion incubation in presence of 0.5 mM EDTA), the “restoration of QC activity after inactivation” value is reported as “Near-total restoration”.

For `O=C(O)c1cccc(C(=O)O)n1` [dipicolinic acid], on QC [2], the “inactivation of human QC after extensive dialysis” value is on record as “almost completely inactivated” and the “inhibition … by chelators” value is “abolished”.

On to “H-EFKRLA-NH2 [H-Glu-Phe-Lys-Arg-Leu-Ala-NH2]”, for which the “inhibition of human QC by the peptide” value against QC [4] is recorded as “not inhibited”.

“H-Gln-cyclo(Nε-Lys-Arg-Pro-Ala-Gly-Phe) (H-QKRPAGF; lactam 2-C; SMILES C[C@@H]1NC(=O)[C@@H]2CCCN2C(=O)[C@H](CCCNC(=N)N)NC(=O)[C@@H](NC(=O)[C@@H](N)CCC(N)=O)CCCCNC(=O)[C@H](Cc2ccccc2)NC(=O)CNC1=O)”: in the data set with QC [5], the Km is 240 ± 14 µM and the “kcat (turnover number)” value was 22.8 ± 0.6 s⁻¹.

H-QAAAA-NH2 [H-Gln-Ala-Ala-Ala-Ala-NH2]: on QC [5] (Table 7, substrate length), the Km was 65 ± 3 µM and the kcat was found to be 60.5 ± 0.7 s⁻¹.

With “H-QAASAA-NH2 [H-Gln-Ala-Ala-Ser-Ala-Ala-NH2]”, on QC [5] (Table 7, substrate length), the Km was 79 ± 6 µM and the kcat was found to be 55.3 ± 1.6 s⁻¹.

On to “H-βhomoGln-Phe-Lys-Arg-Leu-Ala-NH2 (H-[β3hQ]FKRLA-NH2; SMILES CC(C)C[C@H](NC(=O)[C@H](CCCNC(=N)N)NC(=O)[C@H](CCCCN)NC(=O)[C@H](Cc1ccccc1)NC(=O)C[C@@H](N)CCC(N)=O)C(=O)N[C@@H](C)C(N)=O)”, for which, in the data set with QC [5], the Km was 2500 ± 200 µM, the “fold reduced efficiency of cyclization compared to peptides of similar size with N-terminal glutaminyl residue” value is reported as “approximately 1000 fold” and the “kcat (turnover number)” value is 3.5 ± 0.1 s⁻¹.

As to “QFRHDSGYEVHHQKLVFFA-NH2 [[Gln^3]Aβ3-21a]”, at QC [5] (setting [8]), the Km came out at 162 ± 12 µM and the kcat was determined as 62 ± 3 s⁻¹.

For “[Gln^1]-GnRH: GnRH with N-terminal glutamine: QHWSYGL RP(G) amide”, in the data set with QC [5] (Table 1), the Km was determined as 53 ± 3 µM and the kcat came to 69.2 ± 1.1 s⁻¹.

reduced 6-methylpterin: the “inhibition of mammalian QC” value in the data set on mammalian QC was “Inhibition of a mammalian QC was only detected”.
